Experimental data taken from ChEMBL document CHEMBL1152068, “A study of 3-amino-N-hydroxypropanesulfonamide derivatives as potential GABAB agonists and their fragmentation to 3-aminopropanesulfinic acid” (Bioorg Med Chem Lett, 1996).

Tests used:
GABA B receptor = GABA B receptor (Rattus norvegicus, UniProt O88871+Q9Z0U4); assay: Binding affinity against Gamma-aminobutyric acid type B receptor in rat brain synaptosomes after 30 minutes; assay type: subcellular
[1] = target: GABA-A receptor; anion channel; assay: Binding affinity against Gamma-aminobutyric acid A receptor in rat brain synaptosomes after 30 minutes; assay type: subcellular
Cavia porcellus [2] = assay: Inhibitory effect on bronchospasm caused by vagal nerve stimulation (EFS) in anesthetized, mechanically ventilated guinea-pigs at 3 mg/kg after 10 minutes; assay type: functional; details: Bronchiole
Cavia porcellus [3] = species: Cavia porcellus; assay: Compound was tested for its effect on EFS stimulated neuronal cholinergic contractions of guinea pig tracheal rings after 10 minutes; assay type: functional; details: Trachea
[4] = system: GABA-A receptor; anion channel; assay: Binding affinity against Gamma-aminobutyric acid A receptor in rat brain synaptosomes after 30 minutes (inactive); assay type: subcellular

Chain of GABA B receptor (Q9Z0U4 whole entry): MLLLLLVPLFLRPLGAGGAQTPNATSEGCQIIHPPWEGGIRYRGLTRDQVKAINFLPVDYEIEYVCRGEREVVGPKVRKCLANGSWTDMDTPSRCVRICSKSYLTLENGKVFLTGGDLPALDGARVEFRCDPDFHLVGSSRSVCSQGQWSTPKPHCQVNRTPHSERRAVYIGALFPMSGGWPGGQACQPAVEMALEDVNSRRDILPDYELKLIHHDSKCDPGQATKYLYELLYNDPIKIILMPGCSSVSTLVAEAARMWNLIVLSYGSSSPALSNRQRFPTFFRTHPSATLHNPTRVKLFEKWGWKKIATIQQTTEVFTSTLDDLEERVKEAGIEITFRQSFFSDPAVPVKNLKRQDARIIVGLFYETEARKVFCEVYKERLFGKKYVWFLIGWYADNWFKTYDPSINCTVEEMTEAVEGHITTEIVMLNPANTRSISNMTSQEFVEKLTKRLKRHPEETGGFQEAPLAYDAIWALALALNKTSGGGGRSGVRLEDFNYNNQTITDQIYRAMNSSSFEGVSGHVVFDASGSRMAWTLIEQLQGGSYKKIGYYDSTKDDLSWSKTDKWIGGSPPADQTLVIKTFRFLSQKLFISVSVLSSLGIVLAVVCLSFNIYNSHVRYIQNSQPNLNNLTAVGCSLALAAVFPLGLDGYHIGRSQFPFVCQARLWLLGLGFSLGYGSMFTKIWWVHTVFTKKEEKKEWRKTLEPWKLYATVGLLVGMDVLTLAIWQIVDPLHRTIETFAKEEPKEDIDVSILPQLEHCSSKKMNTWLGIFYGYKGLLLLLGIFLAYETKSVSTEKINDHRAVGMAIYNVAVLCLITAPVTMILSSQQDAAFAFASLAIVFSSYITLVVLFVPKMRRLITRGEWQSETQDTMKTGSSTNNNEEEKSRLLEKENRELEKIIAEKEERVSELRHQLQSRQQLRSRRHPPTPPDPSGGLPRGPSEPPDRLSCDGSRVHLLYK
Chain of GABA B receptor (O88871 whole entry): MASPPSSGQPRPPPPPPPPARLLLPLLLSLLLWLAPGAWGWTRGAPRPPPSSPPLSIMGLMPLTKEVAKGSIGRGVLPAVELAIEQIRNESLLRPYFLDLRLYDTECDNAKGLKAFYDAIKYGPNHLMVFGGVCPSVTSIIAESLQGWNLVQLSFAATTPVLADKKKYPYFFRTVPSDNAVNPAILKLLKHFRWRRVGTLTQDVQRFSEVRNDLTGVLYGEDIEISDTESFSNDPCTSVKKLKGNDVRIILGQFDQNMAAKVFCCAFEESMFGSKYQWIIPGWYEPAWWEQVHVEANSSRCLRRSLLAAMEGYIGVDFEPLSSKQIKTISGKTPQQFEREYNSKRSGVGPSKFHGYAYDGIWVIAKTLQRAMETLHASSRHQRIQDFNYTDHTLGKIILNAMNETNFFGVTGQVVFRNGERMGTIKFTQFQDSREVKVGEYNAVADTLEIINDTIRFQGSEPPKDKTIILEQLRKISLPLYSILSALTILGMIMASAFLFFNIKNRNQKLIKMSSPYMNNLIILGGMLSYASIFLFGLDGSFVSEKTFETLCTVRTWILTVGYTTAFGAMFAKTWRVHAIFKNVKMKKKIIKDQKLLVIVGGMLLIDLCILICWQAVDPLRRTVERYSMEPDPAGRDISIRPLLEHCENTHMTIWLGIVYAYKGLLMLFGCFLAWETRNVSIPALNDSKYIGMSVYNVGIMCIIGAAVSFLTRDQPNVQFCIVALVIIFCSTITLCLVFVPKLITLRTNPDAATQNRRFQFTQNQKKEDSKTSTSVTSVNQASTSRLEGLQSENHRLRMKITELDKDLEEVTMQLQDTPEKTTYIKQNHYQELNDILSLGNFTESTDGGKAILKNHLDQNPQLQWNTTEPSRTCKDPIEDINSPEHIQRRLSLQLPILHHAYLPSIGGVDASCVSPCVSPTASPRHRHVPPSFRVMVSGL

Compound	IC50 (GABA B receptor) [nM]	IC50 [1] [nM]	inhibition in vivo at 3 mg/kg (Cavia porcellus [2]) [%]	IC50 (Cavia porcellus [3]) [nM]	IC50 [4]
NCCCS(=O)(=O)N(O)CC(=O)O	80	620	–	–	–
NCCCS(=O)(=O)NO	280	2000	0	16000	–
NCCCS(=O)(=O)N(O)Cc1ccccc1	40	230	17	4200	–
CN(O)S(=O)(=O)CCCN	40	280	17	2600	–
NCC(CC(=O)O)c1ccc(Cl)cc1 (racemic) [BACLOFEN]	–	–	75	6400	Not Active
NCCCS(=O)O [HOMOHYPOTAURINE]	60	470	25	1700	–
NCCCS(=O)(=O)O [TRAMIPROSATE]	30000	300	–	–	–
